Where “and” joins values, the source holds several entries; their conditions need not be identical. Equal values may be shown once.
How the values were obtained:
[1] = instrument: DT, single field, calibrated with Agilent tune mix (Agilent)
[2] = instrument: DT, single field, calibrated with ESI Low Concentration Tuning Mix (Agilent)
[3] = instrument: TW, calibrated with polyalanine and drug standards

| SMILES | collision cross section (N2) ([1]; [M+Na]+) [Å²] | collision cross section (N2) ([1]; [M+H]+) [Å²] | collision cross section (N2) ([1]; [M-H]-) [Å²] | other results |
| --- | --- | --- | --- | --- |
| CC(C)(COP(=O)(O)OP(=O)(O)OC[C@H]1O[C@@H](n2cnc3c(N)ncnc32)[C@H](O)[C@@H]1O)[C@@H](O)C(=O)NCCC(=O)NCCS [Dephosphocoenzyme A] |  | 238.6 | 232.51 |  |
| OC[C@@H](O)[C@@H](O)[C@H](O)[C@H](O)CO [D-Mannitol] | 141 |  |  |  |
| CC(=O)CC(=O)SCCNC(=O)CCNC(=O)[C@H](O)C(C)(C)COP(=O)(O)OP(=O)(O)OC[C@H]1O[C@@H](n2cnc3c(N)ncnc32)[C@H](O)[C@@H]1OP(=O)(O)O [Acetoacetyl coenzyme A] |  | 247.8 | 252.94 |  |
| CCCCCCCCCCCC(=O)SCCNC(=O)CCNC(=O)[C@H](O)C(C)(C)COP(=O)(O)OP(=O)(O)OC[C@H]1O[C@@H](n2cnc3c(N)ncnc32)[C@H](O)[C@@H]1OP(=O)(O)O [Lauroyl-CoA] |  | 284 | 283.18 |  |
| Nc1ccccc1C(=O)O [Anthranilic acid] |  |  | 123.99 | collision cross section (N2) ([1]; [M+H-H2O]+): 118.8 Å² |
| O=C(O)[C@@H](O)[C@H](O)[C@H](O)[C@@H](O)C(=O)O [D-Galactarate] | 147.3 |  | 130.24 |  |
| N[C@@H](Cc1c[nH]c2ccc(O)cc12)C(=O)O [5-Hydroxy-L-tryptophan] | 152.2 |  | 148.86 |  |
| CCCCCCCCCCCCCCCCCCCC(=O)O [Arachidic acid] |  |  | 183.41 |  |
| CC(=O)N[C@H]1C(O)O[C@H](COP(=O)(O)O)[C@@H](O)[C@@H]1O (stereo partly drawn) [N-Acetyl-D-Glucosamine 6-Phosphate] | 164 |  | 152.83 |  |
| CC(C)[C@@H](C)/C=C/[C@@H](C)[C@H]1CC[C@H]2/C(=C/C=C3\C[C@@H](O)CC[C@@H]3C)CCC[C@]12C [Dihydrotachysterol] |  | 205.8 |  |  |
| Nc1nc(=O)c2ncn([C@@H]3O[C@H](COP(=O)(O)OP(=O)(O)O[C@H]4O[C@H](CO)[C@@H](O)[C@H](O)[C@H]4O)[C@@H](O)[C@H]3O)c2[nH]1 [GDP-glucose] |  | 218.9 | 208.72 |  |
| Nc1ncnc2c1ncn2[C@@H]1O[C@H](COP(=O)(O)OP(=O)(O)OC[C@@H](O)[C@@H](O)[C@@H](O)C=O)[C@@H](O)[C@H]1O [ADP Ribose] |  | 211.4 |  |  |
| O=C(O)CCCC(=O)C(=O)O [2-Oxoadipic acid] |  |  |  | collision cross section (N2) ([1]; [M+Na-2H]-): 129.65 Å² |
| N[C@@H](C[C@@H](O)C(=O)O)C(=O)O [L-Erythro-4-Hydroxyglutamic acid] |  | 135.8 |  | collision cross section (N2) ([1]; [M-H2O-H]-): 123.86 Å² |
| N[C@@H](CCC(=O)N[C@@H](CSSC[C@H](NC(=O)CC[C@H](N)C(=O)O)C(=O)NCC(=O)O)C(=O)NCC(=O)O)C(=O)O [Glutathione disulfide] |  | 224.7 |  |  |
| O=P(O)(O)OC1O[C@H](CO)[C@@H](O)[C@H](O)[C@@H]1O (stereo partly drawn) [D-Mannose 1-phosphate] | 158.3 |  | 143.99 |  |
| O=C(O)C(COP(=O)(O)O)OP(=O)(O)O [2,3-Diphospho-D-glyceric acid] | 152.3 |  |  |  |
| CC(=O)N[C@H]1[C@H]([C@H](O)[C@H](O)CO)OC(O)(C(=O)O)C[C@@H]1O (stereo partly specified) [N-Acetylneuraminic acid] | 168.6 |  |  |  |
| CC1=CC(=O)c2ccccc2C1=O [Menadione] |  |  | 129.79 |  |
| C[C@]12CC[C@@H](O)C[C@H]1CC[C@@H]1[C@@H]2[C@@H](O)C[C@]2(C)[C@@H](C(=O)CO)CC[C@@H]12 [3alpha,11beta,21-Trihydroxy-5beta-pregnan-20-one] |  |  | 187.18 | collision cross section (N2) ([1]; [M+H-H2O]+): 179.6 Å² |
| OC[C@@H](O)[C@@H](O)[C@H](O)[C@H](O)CO [MANNITOL] |  |  |  | collision cross section (N2) ([2]; [M+Na]+): 141.1 Å²; collision cross section (N2) ([3]; [M+Na]+): 139.6 Å² |
| Nc1ncnc2nc[nH]c12 [ADENINE] |  |  |  | collision cross section (N2) ([2]; [M+H]+): 124.9 Å²; collision cross section (N2) ([2]; [M+Na]+): 137 Å² and 137.4 Å²; collision cross section (N2) ([2]; [M-H]-): 119.6 Å² and 119.8 Å²; collision cross section (N2) ([3]; [M+H]+): 122.4 Å² |
| Nc1ccn([C@@H]2O[C@H](CO)[C@@H](O)[C@H]2O)c(=O)n1 [CYTIDINE] |  |  |  | collision cross section (N2) ([2]; [M+H]+): 151 Å²; collision cross section (N2) ([2]; [M+Na]+): 159.7 Å²; collision cross section (N2) ([2]; [M-H]-): 149.8 Å²; collision cross section (N2) ([3]; [M+H]+): 151.1 Å² |
| Cn1c(=O)[nH]c2ncn(C)c2c1=O [PARAXANTHINE] |  |  |  | collision cross section (N2) ([2]; [M+H]+): 138.7 Å²; collision cross section (N2) ([2]; [M+Na]+): 149.5 Å²; collision cross section (N2) ([3]; [M+H]+): 132.4 Å² |

Now from value to compound, other results behind:

| collision cross section (N2) ([1]; [M+Na]+) [Å²] | collision cross section (N2) ([1]; [M+H]+) [Å²] | collision cross section (N2) ([1]; [M-H]-) [Å²] | SMILES | other results |
| --- | --- | --- | --- | --- |
| 157.3 |  |  | O=C(O)[C@H](O)[C@@H](O)[C@H](O)[C@H](O)COP(=O)(O)O [6-Phospho-D-gluconate] |  |
|  |  | 122.88 | CC(CC(=O)O)CC(=O)O [3-Methylglutaric acid] |  |
| 141.7 |  | 128.77 | OC[C@@H](O)[C@H](O)[C@H](O)[C@@H](O)CO [Dulcitol] |  |
|  |  | 125.26 | O=C(O)CC(C(=O)O)C(O)C(=O)O (stereo unspecified) [Isocitrate] |  |
|  |  | 116.84 | O=C(O)[C@H](O)[C@@H](O)CO [L-Threonate] |  |
|  |  | 178.94 | CCCCC/C=C\C/C=C\C/C=C\C/C=C\CCCC(=O)O [Arachidonic Acid] |  |
| 139.1 |  |  | NC(=O)N[C@@H](CC(=O)O)C(=O)O [N-carbamoyl-L-aspartate] |  |
|  | 129.7 |  | NC(N)=NCCCC(=O)O [4-Guanidinobutyric acid] |  |
|  | 162.6 |  | N[C@@H](CCC(=O)N[C@@H](CCC(=O)O)C(=O)O)C(=O)O [gamma-L-Glutamyl-L-glutamic acid] | collision cross section (N2) ([1]; [M-H2O-H]-): 152.43 Å² |
|  | 186.5 | 184.42 | CC12CCC(=O)C=C1CCC1C2CCC2(C)C(C(=O)CO)CCC12 (stereo unspecified) [11-Deoxycorticosterone] |  |
| 144.6 |  |  | C[C@@H]1OC(O)[C@@H](O)[C@H](O)[C@@H]1O (stereo partly drawn) [L-Fucose] |  |
|  | 217.2 | 206.72 | C[C@@H]1OC(OP(=O)(O)OP(=O)(O)OC[C@H]2O[C@@H](n3cnc4c(=O)nc(N)[nH]c43)[C@H](O)[C@@H]2O)[C@@H](O)[C@H](O)[C@@H]1O (stereo partly drawn) [GDP-L-Fucose] |  |
|  |  | 188.85 | C[C@]12CC[C@@H]3c4ccc(OS(=O)(=O)O)cc4CC[C@H]3[C@@H]1CCC2=O [Estrone 3-sulfate] |  |
|  | 122 | 119.54 | O=Cc1cc(O)ccc1O [Gentisaldehyde] |  |
|  | 172.8 |  | Nc1nc(=O)c2ncn([C@@H]3O[C@@H]4COP(=O)(O)O[C@H]4[C@H]3O)c2[nH]1 [cGMP] |  |
| 170.1 |  | 157.84 | O=C(O)c1ccccc1O[C@@H]1O[C@H](C(=O)O)[C@@H](O)[C@H](O)[C@H]1O [1-Salicylate glucuronide] |  |

— the C3SDB collision cross section collection
